In ChEMBL document CHEMBL1201862, “PubChem BioAssay data set” (2004):
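Grown in 96-well plates, cells were treated for 48 hours with each compound at five concentrations. Insufficient inhibition: endpoint recorded as highest concentration tested. Here, GI50 denotes the concentration required for 50% inhibition of growth.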 Calls of active or inactive are those of the source. No stated cut-off is given here; in the data, active = GI50 up to about 1.1 µM and inactive = higher.

Columns and labels:
Experiment in all cases: inhibition of tumour cell growth, NCI panel, 48 h
EKVX = system: EKVX
SR = system: SR
SK-MEL-2 = system: SK-MEL-2
Malme-3M = system: Malme-3M
IGROV-1 = system: IGROV-1
786-0 = system: 786-0
LOX IMVI = system: LOX IMVI
DLD-1 = system: DLD-1
TK-10 = system: TK-10
NCI-H23 = system: NCI-H23
HCC 2998 = system: HCC 2998
OVCAR-3 = system: OVCAR-3
NCI-H226 = system: NCI-H226
HOP-62 = system: HOP-62
RXF 393 = system: RXF 393
UO-31 = system: UO-31
HL-60 = system: HL-60
HOP-92 = system: HOP-92

Row | Structure (SMILES) | GI50 (EKVX) | GI50 (SR) | GI50 (SK-MEL-2) | GI50 (Malme-3M) | GI50 (IGROV-1) | GI50 (786-0) | GI50 (LOX IMVI) | GI50 (DLD-1) | GI50 (TK-10) | GI50 (NCI-H23) | GI50 (HCC 2998) | GI50 (OVCAR-3) | GI50 (NCI-H226) | GI50 (HOP-62) | GI50 (RXF 393) | GI50 (UO-31) | GI50 (HL-60) | GI50 (HOP-92)
1 | N#CCCN(CCC#N)c1ccc(/C=C(/NC(=O)c2cc([N+](=O)[O-])ccc2Cl)C(=O)N=[N+]=[N-])cc1 | > 100 µM (inactive) | > 100 µM (inactive) | > 100 µM (inactive) | > 100 µM (inactive) | > 100 µM (inactive) | > 100 µM (inactive) | > 100 µM (inactive) | > 100 µM (inactive) | > 100 µM (inactive) | > 100 µM (inactive) | > 100 µM (inactive) | > 100 µM (inactive) | > 100 µM (inactive) | > 100 µM (inactive) | > 100 µM (inactive) | > 100 µM (inactive) | > 100 µM (inactive) | 
2 | COc1ccc2c(c1)C1C(CO2)C(c2ccccc2)=NN1c1ccccc1 (configuration not stated) | > 100 µM (inactive) |  | > 100 µM (inactive) | > 100 µM (inactive) | > 100 µM (inactive) | > 100 µM (inactive) | > 100 µM (inactive) | > 100 µM (inactive) | > 100 µM (inactive) | > 100 µM (inactive) | > 100 µM (inactive) | > 100 µM (inactive) |  | > 100 µM (inactive) | 35.6 µM (inactive) | > 100 µM (inactive) | 99.5 µM (inactive) | > 100 µM (inactive)
3 | O=S(=O)(c1ccccc1)C1CN2OC1(S(=O)(=O)c1ccccc1)CC21CCCCC1 (configuration not stated) | > 100 µM (inactive) | 52.6 µM (inactive) | > 100 µM (inactive) | > 100 µM (inactive) | > 100 µM (inactive) | > 100 µM (inactive) | > 100 µM (inactive) | > 100 µM (inactive) | > 100 µM (inactive) | > 100 µM (inactive) | > 100 µM (inactive) | > 100 µM (inactive) | > 100 µM (inactive) | > 100 µM (inactive) | 77.1 µM (inactive) | 42.9 µM (inactive) | 44.9 µM (inactive) | 
4 | COc1ccc(/C=C/C(=O)c2sc(-n3nc(-c4ccccc4)cc3-c3ccccc3)nc2C)cc1OC | 26.1 µM (inactive) | 24.9 µM (inactive) | 62.1 µM (inactive) | 65.8 µM (inactive) | 24.3 µM (inactive) | 36.4 µM (inactive) | 28.9 µM (inactive) | 21.8 µM (inactive) | 62.5 µM (inactive) | 34.9 µM (inactive) | 51.1 µM (inactive) | 20.6 µM (inactive) | 31.6 µM (inactive) | 57.1 µM (inactive) | 57.1 µM (inactive) | 42 µM (inactive) | 25.2 µM (inactive) | 
5 | c1ccc(CN(Cn2cccn2)Cn2cccn2)nc1 | > 100 µM (inactive) | > 100 µM (inactive) | > 100 µM (inactive) |  |  | > 100 µM (inactive) | > 100 µM (inactive) | 87.3 µM (inactive) | > 100 µM (inactive) | > 100 µM (inactive) |  | > 100 µM (inactive) |  | > 100 µM (inactive) | > 100 µM (inactive) | > 100 µM (inactive) | 47.8 µM (inactive) | > 100 µM (inactive)
6 | N#CC(C(=O)/C(=N/NC(=O)c1ccccc1O)C(C#N)c1ccc(Cl)cc1)c1ccc(Cl)cc1 (configuration not stated) | 22.4 µM (inactive) |  | 16.5 µM (inactive) | 12.4 µM (inactive) |  | 15.9 µM (inactive) | 14.3 µM (inactive) | 11.9 µM (inactive) | 17.5 µM (inactive) | 11.5 µM (inactive) |  | 20 µM (inactive) | 16.9 µM (inactive) | 20.7 µM (inactive) | 4.05 µM (inactive) | 17.1 µM (inactive) | 15.5 µM (inactive) | 
7 | Cc1[nH]c(=O)nc(N/N=C/c2ccc(O)cc2)c1C(=O)Nc1ccc(Cl)cc1 | > 100 µM (inactive) | > 100 µM (inactive) | > 100 µM (inactive) | > 100 µM (inactive) | > 100 µM (inactive) | > 100 µM (inactive) |  | > 100 µM (inactive) | > 100 µM (inactive) |  | > 100 µM (inactive) | > 100 µM (inactive) | 65.2 µM (inactive) | > 100 µM (inactive) |  | > 100 µM (inactive) | > 100 µM (inactive) | 
8 | N#Cc1ccc2cc3c(cc2c1)OCO3 |  |  | > 100 µM (inactive) |  | > 100 µM (inactive) | > 100 µM (inactive) | > 100 µM (inactive) | > 100 µM (inactive) |  | > 100 µM (inactive) | > 100 µM (inactive) | > 100 µM (inactive) | 39.4 µM (inactive) | > 100 µM (inactive) | 61.5 µM (inactive) | 21.5 µM (inactive) | 77.1 µM (inactive) | 35.6 µM (inactive)
9 | CC(C)N(C(C)C)P(OCCC#N)OC1CC(n2cnc3c(=O)[nH]cnc32)OC1COC(=O)NCCCCCCNC(=O)OC(C)(C)c1ccc(-c2ccccc2)cc1 (configuration not stated) | > 100 µM (inactive) |  | 30.4 µM (inactive) | 32.2 µM (inactive) | 17 µM (inactive) | 23 µM (inactive) | 18.2 µM (inactive) | 43.3 µM (inactive) | 24.2 µM (inactive) | 26.1 µM (inactive) | 25.5 µM (inactive) |  | 23.9 µM (inactive) | 23.4 µM (inactive) | 27.7 µM (inactive) | 17.5 µM (inactive) | 14.7 µM (inactive) | 35.9 µM (inactive)
10 | CCOc1ccc(/C=C(\Cl)c2ccc(OC)c(OC)c2)cc1 | 80.4 µM (inactive) | 12.2 µM (inactive) |  | 58.9 µM (inactive) | 84.9 µM (inactive) | > 100 µM (inactive) |  | 22.5 µM (inactive) |  | 19.3 µM (inactive) | 41.6 µM (inactive) |  | 33.1 µM (inactive) | 98.6 µM (inactive) | 12.4 µM (inactive) | 28.7 µM (inactive) | 21.8 µM (inactive) | 55.3 µM (inactive)
11 | COc1ccccc1NC(=O)CC(=O)n1nc(C)c(/N=N/c2ccccc2F)c1C | > 100 µM (inactive) | 71.8 µM (inactive) | > 100 µM (inactive) | > 10 µM (inactive) | > 100 µM (inactive) | 76.6 µM (inactive) | > 100 µM (inactive) | > 100 µM (inactive) | > 100 µM (inactive) | > 96.2 µM (inactive) | > 100 µM (inactive) | > 100 µM (inactive) | 45.1 µM (inactive) | 32.6 µM (inactive) | > 57.3 µM (inactive) | > 100 µM (inactive) | > 100 µM (inactive) | 37.7 µM (inactive)
12 | COc1cc2cc3c4c(cc(OC)c(OC)c4c2cc1OC)CCN3C(=O)OCCBr | 10.1 µM (inactive) | 18.7 µM (inactive) | > 100 µM (inactive) | > 100 µM (inactive) | > 100 µM (inactive) | 55.8 µM (inactive) | 32.7 µM (inactive) | 45.5 µM (inactive) | > 100 µM (inactive) | 81.7 µM (inactive) | 42.3 µM (inactive) | > 100 µM (inactive) | 0.259 µM (active) |  | 42.5 µM (inactive) | > 100 µM (inactive) | 39.1 µM (inactive) | 39.1 µM (inactive)
13 | COc1ccc2c(c1)CCC(OS(=O)(=O)CC13CCC(CC1=O)C3(C)C)C2=O (configuration not stated) | > 100 µM (inactive) | 24.9 µM (inactive) | 23.9 µM (inactive) | 43 µM (inactive) |  | 18.8 µM (inactive) | 15.6 µM (inactive) | 31.3 µM (inactive) | 39.6 µM (inactive) | 17.3 µM (inactive) | 23 µM (inactive) | 25.7 µM (inactive) | 29 µM (inactive) | 29.2 µM (inactive) |  | 35.6 µM (inactive) | 18.5 µM (inactive) | 31.8 µM (inactive)
14 | CSc1ccc2c(cc1=O)C(NC(=O)c1ccccc1)CCc1cc(O)c(O)c(O)c1-2 (configuration not stated) | 6.22 µM (inactive) |  | 5.5 µM (inactive) | 7.14 µM (inactive) | 22 µM (inactive) | 29.4 µM (inactive) | 16.4 µM (inactive) | 16.7 µM (inactive) | 52.8 µM (inactive) | 4.37 µM (inactive) | 4.84 µM (inactive) | 2.51 µM (inactive) | 21.2 µM (inactive) | 6.01 µM (inactive) | 24.5 µM (inactive) | 77.8 µM (inactive) | 7.43 µM (inactive) | 4.06 µM (inactive)
15 | CCN(CC)CCNc1ccc2nnn3c4ccc(C)cc4c(=O)c1c23 |  | 3.37 µM (inactive) | 13.7 µM (inactive) | 12.6 µM (inactive) | 10.4 µM (inactive) | 5.66 µM (inactive) | 3.61 µM (inactive) | 6.08 µM (inactive) | 12.2 µM (inactive) | 11.7 µM (inactive) |  | 13.2 µM (inactive) | 10.8 µM (inactive) | 14.9 µM (inactive) |  | 10.2 µM (inactive) | 3.9 µM (inactive) | 6.55 µM (inactive)
16 | NC(=O)c1cccc([N+](=O)[O-])c1 | > 100 µM (inactive) |  | > 100 µM (inactive) | > 100 µM (inactive) | > 100 µM (inactive) | > 100 µM (inactive) | > 100 µM (inactive) | > 100 µM (inactive) | > 100 µM (inactive) | > 100 µM (inactive) | > 100 µM (inactive) | > 100 µM (inactive) | > 100 µM (inactive) | > 100 µM (inactive) |  | > 100 µM (inactive) | > 100 µM (inactive) | 
17 | Cn1cnnc1Sc1c([N+](=O)[O-])ncn1C | > 100 µM (inactive) | 26.5 µM (inactive) | 50.6 µM (inactive) | 16.4 µM (inactive) | > 100 µM (inactive) | > 100 µM (inactive) | 35.2 µM (inactive) | 38.5 µM (inactive) | > 100 µM (inactive) | 84.7 µM (inactive) | > 100 µM (inactive) | > 100 µM (inactive) | > 100 µM (inactive) | > 100 µM (inactive) |  | > 100 µM (inactive) |  | 26.5 µM (inactive)
